Assay results published in patent publication US11345707B2, “Atropisomerism for increased kinase inhibitor selectivity” (SAN DIEGO STATE UNIVERSITY RESEARCH FOUNDATION, priority 2015, dated 2022).

Columns and labels:
[1] = tested on: panel of tyrosine kinases; assay: Kinase inhibitor profiling across a panel of tyrosine kinases (Z′-LYTE), selectivity score; assay type: biochemical
Procedure: To analyze each analog's selectivity across the panel we turned to selectivity scores (Davis et al., Nat. Biotechnol. 2011, 29, 1046-51), simply the number of kinases inhibited above a certain threshold divided by the number of kinases evaluated. […] For example at 1000 nM 2e-(R) yielded an S(40%) of 0.11 while 2e-(S) gave an S(40%) of 0.16. […] Differences in selectivity between 2e-(R) and 2e-(S) at 5000 nM (4.5 times the IC50 of 2e-(S) toward Src) and for 5 at 1000 nM (6.25 times the IC50 of 5 toward Src) can be viewed graphically across tyrosine kinases (FIG. 3). Importantly, similar trends were also observed across each of the atropisomeric series tested.
All samples were sent out to Life Technologies to obtain kinase inhibition data. A brief description of the assays and analyses are included below.
Assay Theory (SelectScreen® Kinase Profiling Services (Life Technologies, Madison, Wis. USA). The Z′-LYTE® biochemical assay employs a fluorescence-based, coupled-enzyme format and is based on the differential sensitivity of phosphorylated and non-phosphorylated peptides to proteolytic cleavage. The peptide substrate is labeled with two fluorophores—one at each end—that make up a FRET pair.
In the primary reaction, the kinase transfers the gamma-phosphate of ATP to a single tyrosine, serine or threonine residue in a synthetic FRET-peptide. In the secondary reaction, a site-specific protease recognizes and cleaves non-phosphorylated FRET-peptides. Phosphorylation of FRET-peptides suppresses cleavage by the Development Reagent. Cleavage disrupts FRET between the donor (i.e., coumarin) and acceptor (i.e., fluorescein) fluorophores on the FRET-peptide, whereas uncleaved, phosphorylated FRET-peptides maintain FRET. A ratiometric method, which calculates the ratio (the Emission Ratio) of donor emission to acceptor emission after excitation of the donor fluorophore at 400 nm, is used to quantitate reaction progress, as shown in the equation below: […]
A significant benefit of this ratiometric method for quantitating reaction progress is the elimination of well-to-well variations in FRET-peptide concentration and signal intensities. As a result, the assay yields very high Z′-factor values (>0.7) at a low percent phosphorylation. Both cleaved and uncleaved FRET-peptides contribute to the fluorescence signals and therefore to the Emission Ratio. The extent of phosphorylation of the FRET-peptide can be calculated from the Emission Ratio. The Emission Ratio will remain low 1f the FRET-peptide is phosphorylated (i.e., no kinase inhibition) and will be high 1f the FRET-peptide is non-phosphorylated (i.e., kinase inhibition).
Both cleaved and uncleaved FRET-peptides contribute to the fluorescence signals and therefore to the Emission Ratio. The extent of phosphorylation of the FRET-peptide can be calculated from the Emission Ratio. The Emission Ratio will remain low 1f the FRET-peptide is phosphorylated (i.e., no kinase inhibition) and will be high 1f the FRET-peptide is non-phosphorylated (i.e., kinase inhibition).

[2] = Experimental measurement of the barriers to rotation (racemization followed by chiral HPLC); assay type: physicochemical
Procedure: The enantiomerically enriched analogues were then dissolved in ethanol and placed in a sealed 2-dram vial and heated under constant temperature on an aluminum block. At each time point, an aliquot of the mixture was removed and quenched in an HPLC vial containing ice cold 80:20 hexanes:ethanol. […] The timepoint and enantiomeric excess (ee) data was then plotted in order to determine an observed rate constant, kobs, at the corresponding temperature. The barrier to rotation was then calculated using the relationship of kracemization=2*kenantiomerization and then substituted into the Gibbs Free Energy Equation:
[formula] where h=Planck Constant, kb=Boltzmann Constant, T=Temp. (K), R=Gas Constant.

COc1ccc(Cl)c(-c2c(Cl)n(C(C)(C)C)c3ncnc(N)c23)c1 (single isomer, unassigned) [2e-(R), 7-(tert-butyl)-6-chloro-5-(2-chloro-5-methoxyphenyl)-7H-pyrrolo[2,3-d]pyrimidin-4-amine]
S(40%): number of kinases inhibited greater than 40% divided by number of kinases tested (including Src) ([1]; 1000 nM): 0.11
S(40%): number of kinases inhibited greater than 40% divided by number of kinases tested (including Src) ([1]; 5000 nM): 0.44

COc1ccc(Cl)c(-c2c(Cl)n(C3CCCC3)c3ncnc(N)c23)c1 (racemic) [Compound 1e, 6-chloro-5-(2-chloro-5-methoxyphenyl)-7-cyclopentyl-7H-pyrrolo[2,3-d]pyrimidin-4-amine]
t1/2 to Racemization at 37° C. [2]: 18 days

COc1cccc(-c2cn(C(C)(C)C)c3ncnc(N)c23)c1 [Compound 5, reference compound]
S(40%): number of kinases inhibited greater than 40% divided by number of kinases tested (including Src) ([1]; 200 nM): 0.44
activity for the tyrosine kinase panel tested ([1]; 200 nM and 1000 nM): near pan activity
S(40%): number of kinases inhibited greater than 40% divided by number of kinases tested (including Src) ([1]; 1000 nM): 0.72

COc1ccc(Cl)c(-c2c(Cl)n(C(C)(C)C)c3ncnc(N)c23)c1 (single isomer, unassigned) [2e-(S), 7-(tert-butyl)-6-chloro-5-(2-chloro-5-methoxyphenyl)-7H-pyrrolo[2,3-d]pyrimidin-4-amine]
S(40%): number of kinases inhibited greater than 40% divided by number of kinases tested (including Src) ([1]; 1000 nM): 0.16
S(40%): number of kinases inhibited greater than 40% divided by number of kinases tested (including Src) ([1]; 5000 nM): 0.61
